Results: PubChem BioAssay AID2060896 (Molecular Pharmacology Branch, DTP, NCI, 2025)
One block for each molecule: values may come before it.

Tested on: 941728-121-R-J1-PDC complex spheroid viability
Test: Anticancer human tumor 941728-121-R-J1-PDC patient-derived lung adenocarcinoma cell line growth inhibition [RAS]
Settings: for IC50: curve of first compound; for viability, T/C: stronger effect = lower value
Procedure, shortened: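 Multi-cell-type spheroids: tumor cells plus HUVEC endothelial cells and mesenchymal stem cells. RAS-pathway inhibitors were combined with targeted agents, each dosed in half-log steps down from clinical Cmax, or from 10 microM when Cmax was unknown.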

[1] = second compound 0.000949 µM, first compound 0.0316 µM
[2] = second compound 0.000949 µM, first compound 0.1 µM
[3] = second compound 0.000949 µM, first compound 0.316 µM
[4] = second compound 0.000949 µM, first compound 1 µM
[5] = second compound 0.003 µM, first compound 0.0316 µM
[6] = second compound 0.003 µM, first compound 0.1 µM
[7] = second compound 0.003 µM, first compound 0.316 µM
[8] = second compound 0.003 µM, first compound 1 µM
[9] = second compound 0.00949 µM, first compound 0.0316 µM
[10] = second compound 0.00949 µM, first compound 0.1 µM
[11] = second compound 0.00949 µM, first compound 0.316 µM
[12] = second compound 0.00949 µM, first compound 1 µM
[13] = second compound 0.03 µM, first compound 0.0316 µM
[14] = second compound 0.03 µM, first compound 0.1 µM
[15] = second compound 0.03 µM, first compound 0.316 µM
[16] = second compound 0.03 µM, first compound 1 µM
[17] = second compound 0.0949 µM, first compound 0.0316 µM
[18] = second compound 0.0949 µM, first compound 0.1 µM
[19] = second compound 0.0949 µM, first compound 0.316 µM
[20] = second compound 0.0949 µM, first compound 1 µM
[21] = second compound 0.3 µM, first compound 0.0316 µM
[22] = second compound 0.3 µM, first compound 0.1 µM
[23] = second compound 0.3 µM, first compound 0.316 µM
[24] = second compound 0.3 µM, first compound 1 µM
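Note: spheroids exposed to compounds for 7 days before readout.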
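Throughout, for viability, T/C: 100% = DMSO vehicle control viability.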

IC50 (second compound 0.000949 µM): < 31.6 nM
IC50 (second compound 0.003 µM): < 31.6 nM
IC50 (second compound 0.00949 µM): < 31.6 nM
IC50 (second compound 0.03 µM): < 31.6 nM
IC50 (second compound 0.0949 µM): < 31.6 nM
IC50 (second compound 0.3 µM): < 31.6 nM
SMILES: CC(Nc1ccc2c(c1)OCCn1cc(N3C(=O)OCC3C(F)F)nc1-2)C(N)=O (centres undefined) + CCn1c(-c2cccnc2C(C)OC)c2c3cc(ccc31)N1CCOC(CC(NC(=O)C(C(C)C)N(C)C(=O)C3(F)CCN(C(=O)C#CC(C)(C)N(C)C)CC3)C(=O)N3CCCC(N3)C(=O)OCC(C)(C)C2)C1
viability, T/C [1]: 18.5%
viability, T/C [2]: 20.6%
viability, T/C [3]: 12.5%
viability, T/C [4]: 15.8%
viability, T/C (second compound 0.000949 µM, first compound 3.16 µM): 13.3%
viability, T/C (second compound 0.000949 µM, first compound 10 µM): 9.24%
viability, T/C [5]: 20.5%
viability, T/C [6]: 17.2%
viability, T/C [7]: 14.4%
viability, T/C [8]: 14.3%
viability, T/C (second compound 0.003 µM, first compound 3.16 µM): 13.8%
viability, T/C (second compound 0.003 µM, first compound 10 µM): 9.35%
viability, T/C [9]: 18.9%
viability, T/C [10]: 15.3%
viability, T/C [11]: 15.1%
viability, T/C [12]: 14.7%
viability, T/C (second compound 0.00949 µM, first compound 3.16 µM): 11.5%
viability, T/C (second compound 0.00949 µM, first compound 10 µM): 11.7%
viability, T/C [13]: 19.8%
viability, T/C [14]: 18%
viability, T/C [15]: 14.6%
viability, T/C [16]: 15.7%
viability, T/C (second compound 0.03 µM, first compound 3.16 µM): 9.34%
viability, T/C (second compound 0.03 µM, first compound 10 µM): 12.8%
viability, T/C [17]: 18.8%
viability, T/C [18]: 18.4%
viability, T/C [19]: 15.8%
viability, T/C [20]: 11.8%
viability, T/C (second compound 0.0949 µM, first compound 3.16 µM): 12.1%
viability, T/C (second compound 0.0949 µM, first compound 10 µM): 13.7%
viability, T/C [21]: 19.9%
viability, T/C [22]: 18.8%
viability, T/C [23]: 14.6%
viability, T/C [24]: 14.7%
viability, T/C (second compound 0.3 µM, first compound 3.16 µM): 13.5%
viability, T/C (second compound 0.3 µM, first compound 10 µM): 12.3%

IC50 (second compound 0.000949 µM): < 3.16 nM
IC50 (second compound 0.003 µM): 21.9 nM
IC50 (second compound 0.00949 µM): < 3.16 nM
IC50 (second compound 0.03 µM): < 3.16 nM
IC50 (second compound 0.0949 µM): < 3.16 nM
IC50 (second compound 0.3 µM): < 3.16 nM
SMILES: O=C(c1ccc(F)c(F)c1Nc1ccc(I)cc1F)N1CC(O)([C@@H]2CCCCN2)C1 + CCn1c(-c2cccnc2C(C)OC)c2c3cc(ccc31)N1CCOC(CC(NC(=O)C(C(C)C)N(C)C(=O)C3(F)CCN(C(=O)C#CC(C)(C)N(C)C)CC3)C(=O)N3CCCC(N3)C(=O)OCC(C)(C)C2)C1
viability, T/C (second compound 0.000949 µM, first compound 0.00316 µM): 20.5%
viability, T/C (second compound 0.000949 µM, first compound 0.01 µM): 18.8%
viability, T/C [1]: 13.7%
viability, T/C [2]: 17.1%
viability, T/C [3]: 12.5%
viability, T/C [4]: 7.9%
viability, T/C (second compound 0.003 µM, first compound 0.00316 µM): 94.2%
viability, T/C (second compound 0.003 µM, first compound 0.01 µM): 64.1%
viability, T/C [5]: 37.4%
viability, T/C [6]: 38%
viability, T/C [7]: 35.4%
viability, T/C [8]: 18.4%
viability, T/C (second compound 0.00949 µM, first compound 0.00316 µM): 18.6%
viability, T/C (second compound 0.00949 µM, first compound 0.01 µM): 15.4%
viability, T/C [9]: 17%
viability, T/C [10]: 14.6%
viability, T/C [11]: 11.6%
viability, T/C [12]: 9.5%
viability, T/C (second compound 0.03 µM, first compound 0.00316 µM): 18.3%
viability, T/C (second compound 0.03 µM, first compound 0.01 µM): 17.9%
viability, T/C [13]: 18.8%
viability, T/C [14]: 12.8%
viability, T/C [15]: 12.4%
viability, T/C [16]: 12.2%
viability, T/C (second compound 0.0949 µM, first compound 0.00316 µM): 19.4%
viability, T/C (second compound 0.0949 µM, first compound 0.01 µM): 17.1%
viability, T/C [17]: 15.8%
viability, T/C [18]: 13.6%
viability, T/C [19]: 12.9%
viability, T/C [20]: 15.1%
viability, T/C (second compound 0.3 µM, first compound 0.00316 µM): 17.9%
viability, T/C (second compound 0.3 µM, first compound 0.01 µM): 20%
viability, T/C [21]: 15.8%
viability, T/C [22]: 15.7%
viability, T/C [23]: 13.7%
viability, T/C [24]: 14%
